Results taken from US9708321B2, “Spiro-quinazolinone derivatives and their use as positive allosteric modulators of mGluR4” (Merck Patent GmbH, priority 2013, dated 2017).

These compounds were tested against T1, hmGluR4 (Homo sapiens, UniProt Q14833) (assay: HEK-293 mGluR4 cells cAMP assay with EC20 L-Glutamate (HTRF)). Settings: not given.
T1 construct: host or cells: HEK293T
Assay type: cell-based
Procedure: II. Biological Assays HEK-293 mGluR4 Cells cAMP Assay with EC20 L-Glutamate
Using mGluR4 suspension cell format, 10 μM Forskolin (final conc.) used to induce the production of cAMP.
Test the positive allosteric activity of the compounds of the invention at EC20 (2.3 μM for mGluR4 and 4.3 μM for mGluR6) L-Glutamate,
cAMP dymanic2 kit is intended for the direct quantitative determination of cAMP and its principle is based on HTRF technology.
• Cells: HEK293T mGluR4 cells from Multispan, cat# C1191a lot# C1191a-040910 • Culture Media: DMEM+GlutaMAX1+10% dialyzed FBS, 100 mM Sodium Pyruvate, 1 ug/ml puromycin. • Glutamine Starvation Media: DMEM without GlutaMax for plating the cells (glutamine starvation overnight). DMEM high Glucose, without phenol red, glutamine, or sodium pyruvate+10% dialyzed FBS, 100 mM Sodium Pyruvate, 1 ug/ml puromycin, 10 mM Hepes. • Hanks' balanced Salt Solution, HBSS from Invitrogen • Greiner 384 well white low volume high base plate (784075) • cAMP dynamic2 from Cisbio Bioassays • Glutamate: L-Glutamaic acid, monosodium salt, Monohydrate, 98%, from Sigma-Aldrich • Cell Preparation: split cells at 80%-90% confluence. The following day, rinse the cells with DMEM without GlutaMax and change to Glutamine Starvation Media. Incubate overnight. Assay: • Prepare compound plate: Perform compound serial dilution (uses Matrix 4341 plate), using the Bravo liquid handling platform protocol (compound serial dilution) which adds DMSO to columns 1-24 (except cols. 3 and 13). Serial dilute compounds located in columns 3 and 13 at a 1:3 ratio; 10 points (10 ul of 3 mM compound into 20 ul DMSO). Use the Bravo liquid handling platform to transfer 1 ul from the serial dilution plate into Matrix 4314 plate to create stamp plates. Prepare Compound Dilution Buffer: • Dilute 20 mM Forskolin (in DMSO) stock solution in HBSS buffer to make a 20 uM solution (forskolin buffer; 2× solution). To the forskolin buffer, add glutamate to a concentration of 8 uM (compound dilution buffer; 2× EC20 glutamate and forskolin). • Using a multidrop, add 50 ul/well of compound dilution buffer to columns 1-22 of the 2 ul compound stamp plate. Columns 23 and 24 receive forskolin buffer containing 400 uM glutamate (EC100 glutamate; 2× solution). Columns 1 and 2 receive compound dilution buffer containing EC20 glutamate, which is the basal control. • Add a glutamate dose response to row P of compound plate. Prepare the dose response by serial diluting glutamate at a 1:3 ratio in forskolin buffer starting at 2 mM glutamate (2×). Dilute the glutamate 9 times and transfer to compound plate. Prepare Cell Plates: • Harvest cells: Rinse cells with pre-warmed HBSS-10 mM HEPES (without Ca Mg) and dissociate the cells from the flask with versene. Centrifuge the cells, remove the supernatant and suspend in pre-warmed HBSS+10 mM Hepes. Count the cells and centrifuge. Remove the supernatant and suspend the cells in HBSS+Hepes (with Ca Mg) at a density of 400,000 cells/ml. Perform Assay: • Dispense 5 ul from the diluted compound plate into Greiner low volume cell plate using the Bravo liquid handling platform. Using a Multidrop with the small tubing cassette, dispense 5 ul of cells (2000 cells/well) onto the compounds contained in the low volume plates. Incubate the cells at 37° C., 5% CO2 for 30 minutes in the incubator. Assay for cAMP: • Prepare cAMP-d2 and anti-cAMP-Crytate according to the instructions for the two step assay (see Cisbio manual) and add 10 ul of the mixed reagent to each well of the assay plate using the Multidrop. Incubate at room temperature for 60 minutes and read on the Envision plate reader using the mGluR low volume cAMP HTRF 384 well protocol.

T1 sequence (Q14833 33-912): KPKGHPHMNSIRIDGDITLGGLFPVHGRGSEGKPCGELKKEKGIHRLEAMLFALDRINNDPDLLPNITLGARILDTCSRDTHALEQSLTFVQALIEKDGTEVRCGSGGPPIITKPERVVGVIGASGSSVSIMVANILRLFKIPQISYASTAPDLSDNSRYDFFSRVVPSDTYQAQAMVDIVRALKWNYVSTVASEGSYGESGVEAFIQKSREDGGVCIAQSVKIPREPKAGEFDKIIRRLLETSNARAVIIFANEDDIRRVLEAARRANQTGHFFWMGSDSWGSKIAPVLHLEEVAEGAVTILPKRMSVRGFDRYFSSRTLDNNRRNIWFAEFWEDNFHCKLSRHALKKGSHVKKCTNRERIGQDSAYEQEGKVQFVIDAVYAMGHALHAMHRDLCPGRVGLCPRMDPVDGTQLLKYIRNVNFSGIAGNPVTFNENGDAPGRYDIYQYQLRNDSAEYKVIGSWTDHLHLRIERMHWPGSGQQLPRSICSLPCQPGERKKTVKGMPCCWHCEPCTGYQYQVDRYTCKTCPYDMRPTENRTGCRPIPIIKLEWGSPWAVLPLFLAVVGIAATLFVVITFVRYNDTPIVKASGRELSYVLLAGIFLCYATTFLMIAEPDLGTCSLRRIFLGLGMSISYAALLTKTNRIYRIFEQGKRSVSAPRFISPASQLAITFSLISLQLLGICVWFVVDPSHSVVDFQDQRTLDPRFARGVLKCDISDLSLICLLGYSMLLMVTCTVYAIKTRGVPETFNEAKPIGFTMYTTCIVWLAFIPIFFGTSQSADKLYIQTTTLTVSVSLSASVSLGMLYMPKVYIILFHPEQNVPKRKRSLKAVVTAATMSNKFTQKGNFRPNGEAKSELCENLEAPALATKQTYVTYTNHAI

`COc1ccc(N2C(=O)c3ccc(Br)cc3NC23CCN(Cc2ccc(F)c(F)c2)CC3)cc1F` [Compound 24, 7′-Bromo-1-(3,4-difluorobenzyl)-3′-(3-fluoro-4-methoxyphenyl)-1′H-spiro[piperidine-4,2′-quinazolin]-4′(3′H)-one] showed an EC50 of under 1 µM.

Same assay, conditions: positive allosteric activity at EC20 L-Glutamate, 10 μM Forskolin, HEK293T mGluR4 cells, cAMP HTRF; read-out: hrmGluR4/HEK293T-hmGluR4 (EC50)

`COC(=O)c1ccc2c(c1)NC1(CCN(Cc3ccccc3)CC1)N(c1ccc(OC)cc1)C2=O` [Compound 15, Methyl 1-benzyl-3′-(4-methoxyphenyl)-4′-oxo-3′,4′-dihydro-1′H-spiro[piperidine-4,2′-quinazoline]-7′-carboxylate] and `COC(=O)c1ccc2c(c1)NC1(CCN(Cc3ccc(F)c(F)c3)CC1)N(c1ccc(OC)cc1)C2=O` [Compound 4, Methyl 1-(3,4-difluorobenzyl)-3′-(4-methoxyphenyl)-4′-oxo-3′,4′-dihydro-1′H-spiro[piperidine-4,2′-quinazoline]-7′-carboxylate] cannot be ordered by EC50: under 1 µM for the first, under 1 µM for the second.

First: O=C1c2ccc(Br)cc2NC2(CCN(Cc3cnc(Br)s3)CC2)N1c1ccc(OC(F)(F)F)cc1 [Compound 110, 7′-Bromo-1-((2-bromothiazol-5-yl)methyl)-3′-(4-(trifluoromethoxy)phenyl)-1′H-spiro[piperidine-4,2′-quinazolin]-4′(3′H)-one]
Second: O=C1c2ccc(Br)cc2NC2(CCN(Cc3ccccc3OC(F)(F)F)CC2)N1c1ccc(OC(F)(F)F)cc1 [Compound 46, 7′-Bromo-1-(2-(trifluoromethoxy)benzyl)-3′-(4-(trifluoromethoxy)phenyl)-1′H-spiro[piperidine-4,2′-quinazolin]-4′(3′H)-one]
The EC50 of the first is higher: 1 to 10 µM for the first, under 1 µM for the second.

`O=C1c2ccc(F)cc2NC2(CCN(Cc3ccc(F)c(F)c3)CC2)N1c1ccc(OC(F)(F)F)cc1` [Compound 69, 1-(3,4-Difluorobenzyl)-7′-fluoro-3′-(4-(trifluoromethoxy)phenyl)-1′H-spiro[piperidine-4,2′-quinazolin]-4′(3′H)-one] and `N#Cc1ccc2c(c1)NC1(CCN(Cc3ccc(F)c(F)c3)CC1)N(c1ccc(OC(F)(F)F)cc1)C2=O` [Compound 79, 1-(3,4-Difluorobenzyl)-4′-oxo-3′-(4-(trifluoromethoxy)phenyl)-3′,4′-dihydro-1′H-spiro[piperidine-4,2′-quinazoline]-7′-carbonitrile] fall in the same range of EC50: 1 to 10 µM for the first, 1 to 10 µM for the second.

`O=C1c2ccc(F)cc2NC2(CCN(Cc3ccc(F)c(F)c3)CC2)N1c1ccc(Br)cc1` [Compound 51, 3′-(4-Bromophenyl)-1-(3,4-difluorobenzyl)-7′-fluoro-1′H-spiro[piperidine-4,2′-quinazolin]-4′(3′H)-one] and `O=C1c2ccc(Br)cc2NC2(CCN(Cc3ccc(F)c(F)c3)CC2)N1c1ccc(Cl)cc1` [Compound 25, 7′-Bromo-3′-(4-chlorophenyl)-1-(3,4-difluorobenzyl)-1′H-spiro[piperidine-4,2′-quinazolin]-4′(3′H)-one] cannot be ordered by EC50: under 1 µM for the first, under 1 µM for the second.

Compared with `CC(=O)c1ccc2c(c1)NC1(CCN(Cc3ccc(F)c(F)c3)CC1)N(c1ccc(OC(F)(F)F)cc1)C2=O` [Compound 77, 7′-Acetyl-1-(3,4-difluorobenzyl)-3′-(4-(trifluoromethoxy)phenyl)-1′H-spiro[piperidine-4,2′-quinazolin]-4′(3′H)-one], `CC(C)OC(=O)c1ccc2c(c1)NC1(CCN(Cc3ccc(F)c(F)c3)CC1)N(c1ccc(OC(F)(F)F)cc1)C2=O` [Compound 31, Isopropyl 1-(3,4-difluorobenzyl)-4′-oxo-3′-(4-(trifluoromethoxy)phenyl)-3′,4′-dihydro-1′H-spiro[piperidine-4,2′-quinazoline]-7′-carboxylate] is lower in EC50: 1 to 10 µM for the first, under 1 µM for the second.

`COc1ccc(N2C(=O)c3ccccc3NC23CN(Cc2cccc(Cl)c2)C3)cc1` [Compound 76, 1-(3-Chlorobenzyl)-3′-(4-methoxyphenyl)-1′H-spiro[azetidine-3,2′-quinazolin]-4′(3′H)-one] and `COc1ccc(N2C(=O)c3ccccc3NC23CN(Cc2cccc(C)c2)C3)cc1` [Compound 89, 3′-(4-Methoxyphenyl)-1-(3-methylbenzyl)-1′H-spiro[azetidine-3,2′-quinazolin]-4′(3′H)-one] fall in the same range of EC50: 1 to 10 µM for the first, 1 to 10 µM for the second.

Compared with `COCCOc1ccc(N2C(=O)c3ccc(F)cc3NC23CCN(Cc2ccc(F)c(F)c2)CC3)cc1` [Compound 106, 1-(3,4-difluorobenzyl)-7′-fluoro-3′-(4-(2-methoxyethoxyl)phenyl)-1′H-spiro[piperidine-4,2′-quinazolin]-4′(3′H)-one], `COc1ccc(N2C(=O)c3ccc(C)cc3NC23CCN(Cc2ccc(F)c(F)c2)CC3)cc1` [Compound 60] is lower in EC50: 1 to 10 µM for the first, under 1 µM for the second.

`CC(c1ccc(F)cc1)N1CC2(C1)Nc1cc(F)ccc1C(=O)N2c1ccc(OC(F)(F)F)cc1` (stereo not shown) [Compound 82, 7′-Fluoro-1-(1-(4-fluorophenyl)ethyl)-3′-(4-(trifluoromethoxy)phenyl)-1′H-spiro[azetidine-3,2′-quinazolin]-4′(3′H)-one] and `CCOC(=O)c1ccc2c(c1)NC1(CN(C(C)c3ccc(F)cc3)C1)N(c1ccc(OC(F)(F)F)cc1)C2=O` (stereo not shown) [Compound 87, Ethyl 1-(1-(4-fluorophenyl)ethyl)-4′-oxo-3′-(4-(trifluoromethoxy)phenyl)-3′,4′-dihydro-1′H-spiro[azetidine-3,2′-quinazoline]-7′-carboxylate] fall in the same range of EC50: 1 to 10 µM for the first, 1 to 10 µM for the second.

`O=C1c2ccc(Br)cc2NC2(CCN(Cc3ccccc3)CC2)N1c1ccc(Cl)cc1` [Compound 71, 1-Benzyl-7′-bromo-3′-(4-chlorophenyl)-1′H-spiro[piperidine-4,2′-quinazolin]-4′(3′H)-one] and `COc1ccc(N2C(=O)c3ccccc3NC23CCN(Cc2ccccc2C)CC3)cc1` [Compound 109, 3′-(4-Methoxyphenyl)-1-(2-methylbenzyl)-1′H-spiro[piperidine-4,2′-quinazolin]-4′(3′H)-one] fall in the same range of EC50: 1 to 10 µM for the first, 1 to 10 µM for the second.

`COc1ccc(N2C(=O)c3ccccc3NC23CN(Cc2c(F)cccc2F)C3)cc1` [Compound 95, 1-(2,6-Difluorobenzyl)-3′-(4-methoxyphenyl)-1′H-spiro[azetidine-3,2′-quinazolin]-4′(3′H)-one] and `COCCOc1ccc(N2C(=O)c3ccc(F)cc3NC23CN(Cc2ccc(Cl)cc2)C3)cc1` [Compound 123, 1-(4-Chlorobenzyl)-7′-fluoro-3′-(4-(2-methoxyethoxyl)phenyl)-1′H-spiro[azetidine-3,2′-quinazolin]-4′(3′H)-one] fall in the same range of EC50: 1 to 10 µM for the first, 1 to 10 µM for the second.

`COc1ccc(N2C(=O)c3ccc(-c4nccs4)cc3NC23CCN(Cc2ccc(F)c(F)c2)CC3)cc1` [Compound 14, 1-(3,4-Difluorobenzyl)-3′-(4-methoxyphenyl)-7′-(thiazol-2-yl)-1′H-spiro[piperidine-4,2′-quinazolin]-4′(3′H)-one] and `CCOC(=O)c1ccc2c(c1)NC1(CCN(Cc3ccc(F)c(F)c3)CC1)N(c1ccc(OC)cc1)C2=O` [Compound 1, Ethyl 1-(3,4-difluorobenzyl)-3′-(4-methoxyphenyl)-4′-oxo-3′,4′-dihydro-1′H-spiro[piperidine-4,2′-quinazoline]-7′-carboxylate] cannot be ordered by EC50: under 1 µM for the first, under 1 µM for the second.

First: O=C1c2ccc(F)cc2CC2(CCN(Cc3ccc(F)c(F)c3)CC2)N1c1ccc(OC(F)(F)F)cc1 [Compound 127, 1′-(3,4-difluorobenzyl)-6-fluoro-2-(4-(trifluoromethoxy)phenyl)-2,4-dihydro-1H-spiro[isoquinoline-3,4′-piperidin]-1-one]
Second: CCOC(=O)c1ccc2c(c1)NC1(CN(C(c3ccc(F)c(F)c3)C(F)(F)F)C1)N(c1ccc(OC(F)(F)F)cc1)C2=O (stereo not shown) [Compound 34, Ethyl 1-(1-(3,4-difluorophenyl)-2,2,2-trifluoroethyl)-4′-oxo-3′-(4-(trifluoromethoxy)phenyl)-3′,4′-dihydro-1′H-spiro[azetidine-3,2′-quinazoline]-7′-carboxylate]
The EC50 of the first is higher: 1 to 10 µM for the first, under 1 µM for the second. The second is the more potent here.
